Measurements as given in US7045606B2, “Bifunctional chelating agent for actinium” (European Community, priority 2001, dated 2006).

Experiment: complexation properties of chelating agents with 225Ac
Format: physicochemical
Details: compared with the non-functionalised chelating agents EDTA, DTPA, DOTA, PEPA, HEHA, HOHEC and EDTMP
Procedure: Different non-functionalised chelating agents (commercially available or readily synthesised in the laboratory) bearing aminocarboxylate groups (EDTA, DTPA, DOTA, PEPA, HEHA and HOHEC) or aminophosphonate groups (EDTMP) were tested for their complexation properties with ^225Ac. […] Polyaza polycarboxylic macrocycles are known to form thermodynamically stable complexes with large metal ions such as actinides and lanthanides.

O=C(O)CN1CCN(CC(=O)O)CCN(CC(=O)O)CCN(CC(=O)O)CCN(CC(=O)O)CCN(CC(=O)O)CCN(CC(=O)O)CCN(CC(=O)O)CC1 [HOTEC, 1,4,7,10,13, 16,19,22-octacarboxylmethyl-1,4,7,10,13,16,19,22-octaazacyclotetracosane]
complexation properties with ^225Ac: best candidate
